In PubChem BioAssay (NCI):
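Grown in 96-well plates, cells were treated for 48 hours with each compound at five concentrations. Insufficient inhibition: endpoint recorded as highest concentration tested. GI50 marks 50% less growth. TGI marks complete inhibition of growth.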

Legend:
Assay in all cases: DTP human tumour cell line panel, 48 h
HCC-2998 colon = test system: HCC-2998 colon
HT29 colon = test system: HT29 colon
TK-10 renal = test system: TK-10 renal
LXFL 529 NSCLC = test system: LXFL 529 NSCLC
SK-MEL-28 melanoma = test system: SK-MEL-28 melanoma
RPMI-8226 leukemia = test system: RPMI-8226 leukemia
SK-MEL-2 melanoma = test system: SK-MEL-2 melanoma
DMS 114 small cell lung = test system: DMS 114 small cell lung
SK-OV-3 ovarian = test system: SK-OV-3 ovarian
U251 CNS = test system: U251 CNS
UACC-62 melanoma = test system: UACC-62 melanoma
CCRF-CEM leukemia = test system: CCRF-CEM leukemia
SNB-19 CNS = test system: SNB-19 CNS
KM20L2 colon = test system: KM20L2 colon
OVCAR-5 ovarian = test system: OVCAR-5 ovarian
SF-268 CNS = test system: SF-268 CNS
HOP-18 NSCLC = test system: HOP-18 NSCLC
SNB-75 CNS = test system: SNB-75 CNS
SF-295 CNS = test system: SF-295 CNS
OVCAR-8 ovarian = test system: OVCAR-8 ovarian
KM12 colon = test system: KM12 colon
RXF 393 renal = test system: RXF 393 renal
XF 498 CNS = test system: XF 498 CNS
OVCAR-3 ovarian = test system: OVCAR-3 ovarian
IGROV1 ovarian = test system: IGROV1 ovarian
MOLT-4 leukemia = test system: MOLT-4 leukemia
NCI-H23 lung = test system: NCI-H23 lung
M19-MEL melanoma = test system: M19-MEL melanoma
NCI-H226 lung = test system: NCI-H226 lung
M14 melanoma = test system: M14 melanoma
MALME-3M melanoma = test system: MALME-3M melanoma
RXF-631 renal = test system: RXF-631 renal
ACHN renal = test system: ACHN renal
DLD-1 colon = test system: DLD-1 colon
EKVX NSCLC = test system: EKVX NSCLC
K-562 leukemia = test system: K-562 leukemia
OVCAR-4 ovarian = test system: OVCAR-4 ovarian
A549 NSCLC = test system: A549 NSCLC
SNB-78 CNS = test system: SNB-78 CNS
UACC-257 melanoma = test system: UACC-257 melanoma
NCI-H522 lung = test system: NCI-H522 lung
786-0 renal = test system: 786-0 renal
HOP-62 NSCLC = test system: HOP-62 NSCLC
SN12C renal = test system: SN12C renal
SW-620 colon = test system: SW-620 colon
HCT-15 colon = test system: HCT-15 colon
DMS 273 small cell lung = test system: DMS 273 small cell lung
SF-539 CNS = test system: SF-539 CNS
HOP-92 NSCLC = test system: HOP-92 NSCLC
LOX IMVI melanoma = test system: LOX IMVI melanoma
HL-60(TB) leukemia = test system: HL-60(TB) leukemia
HCT-116 colon = test system: HCT-116 colon
UO-31 renal = test system: UO-31 renal
SK-MEL-5 melanoma = test system: SK-MEL-5 melanoma
CAKI-1 renal = test system: CAKI-1 renal
COLO 205 colon = test system: COLO 205 colon
SR leukemia = test system: SR leukemia
NCI-H460 lung = test system: NCI-H460 lung
A498 renal = test system: A498 renal

## CCC[CH2][Sn]1([CH2]CCC)[O]C(=O)C[S]1
HCC-2998 colon
  GI50: 1.83 µM
  TGI: 3.97 µM
HT29 colon
  GI50: 2.83 µM
  TGI: 8.2 µM
TK-10 renal
  GI50: 1.55 µM
  TGI: 2.92 µM
LXFL 529 NSCLC
  GI50: 0.312 µM
  TGI: 1.55 µM
SK-MEL-28 melanoma
  GI50: 1.35 µM
  TGI: 2.69 µM
RPMI-8226 leukemia
  GI50: 0.455 µM
  TGI: 3.57 µM
SK-MEL-2 melanoma
  GI50: 0.975 µM
  TGI: 2.33 µM
DMS 114 small cell lung
  GI50: 1.29 µM
  TGI: 4.08 µM
SK-OV-3 ovarian
  GI50: 4.63 µM
  TGI: 14 µM
U251 CNS
  GI50: 1.33 µM
  TGI: 2.65 µM
UACC-62 melanoma
  GI50: 1.35 µM
  TGI: 2.89 µM
CCRF-CEM leukemia
  GI50: 0.324 µM
  TGI: 1.57 µM
SNB-19 CNS
  GI50: 1.22 µM
  TGI: 2.5 µM
KM20L2 colon
  GI50: 4.06 µM
  TGI: 15.9 µM
OVCAR-5 ovarian
  GI50: 2.09 µM
  TGI: 5.27 µM
SF-268 CNS
  GI50: 1.67 µM
  TGI: 4.83 µM
HOP-18 NSCLC
  GI50: 1.57 µM
  TGI: 2.91 µM
SNB-75 CNS
  GI50: 1.35 µM
  TGI: 3.27 µM
SF-295 CNS
  GI50: 3.61 µM
  TGI: 13 µM
OVCAR-8 ovarian
  GI50: 2.11 µM
  TGI: 5.46 µM
KM12 colon
  GI50: 2.6 µM
  TGI: 10.9 µM
RXF 393 renal
  GI50: 0.573 µM
  TGI: 1.88 µM
XF 498 CNS
  GI50: 1.41 µM
  TGI: 2.74 µM
OVCAR-3 ovarian
  GI50: 1.57 µM
  TGI: 3.03 µM
IGROV1 ovarian
  GI50: 1.86 µM
  TGI: 4.16 µM
MOLT-4 leukemia
  GI50: 1.39 µM
  TGI: 5.46 µM
NCI-H23 lung
  GI50: 1.28 µM
  TGI: 2.64 µM
M19-MEL melanoma
  GI50: 1.9 µM
  TGI: 7.75 µM
NCI-H226 lung
  GI50: 1.93 µM
  TGI: 3.77 µM
M14 melanoma
  GI50: 2.05 µM
  TGI: 4.43 µM
MALME-3M melanoma
  GI50: 1.14 µM
  TGI: 2.52 µM
RXF-631 renal
  GI50: 0.85 µM
  TGI: 5.05 µM
ACHN renal
  GI50: 1.64 µM
  TGI: 3.04 µM
DLD-1 colon
  GI50: 1.29 µM
  TGI: 2.78 µM
EKVX NSCLC
  GI50: 2.46 µM
  TGI: 6.53 µM
K-562 leukemia
  GI50: 0.405 µM
  TGI: 3.59 µM
OVCAR-4 ovarian
  GI50: 2.16 µM
  TGI: 4.67 µM
A549 NSCLC
  GI50: 8.9 µM
  TGI: 23.5 µM
SNB-78 CNS
  GI50: 1.17 µM
  TGI: 4.14 µM
UACC-257 melanoma
  GI50: 1.4 µM
  TGI: 3.27 µM
NCI-H522 lung
  GI50: 0.212 µM
  TGI: 0.814 µM
786-0 renal
  GI50: 1.49 µM
  TGI: 2.83 µM
HOP-62 NSCLC
  GI50: 6.86 µM
  TGI: 18 µM
SN12C renal
  GI50: 1.91 µM
  TGI: 5.09 µM
SW-620 colon
  GI50: 0.984 µM
  TGI: 3.13 µM
HCT-15 colon
  GI50: 1.46 µM
  TGI: 3.18 µM
DMS 273 small cell lung
  GI50: 2.11 µM
  TGI: 6.07 µM
SF-539 CNS
  GI50: 1.64 µM
  TGI: 3.43 µM
HOP-92 NSCLC
  GI50: 1.84 µM
  TGI: 3.95 µM
LOX IMVI melanoma
  GI50: 1.46 µM
  TGI: 3.09 µM
HL-60(TB) leukemia
  GI50: 1.02 µM
  TGI: 4.66 µM
HCT-116 colon
  GI50: 1.91 µM
  TGI: 4.49 µM
UO-31 renal
  GI50: 2.48 µM
  TGI: 7.29 µM
SK-MEL-5 melanoma
  GI50: 1.44 µM
  TGI: 3 µM
CAKI-1 renal
  GI50: 0.759 µM
  TGI: 3.47 µM
COLO 205 colon
  GI50: 1.75 µM
  TGI: 4.11 µM
SR leukemia
  GI50: 1.13 µM
  TGI: 7.09 µM
NCI-H460 lung
  GI50: 4.09 µM
  TGI: 16.9 µM

## CSc1nc2c(nc(N)n2C2OCC(O)C(O)C2O)c(=O)[nH]1 (stereo not drawn)
HCC-2998 colon
  TGI: > 100 µM
HT29 colon
  TGI: > 100 µM
TK-10 renal
  TGI: > 100 µM
LXFL 529 NSCLC
  TGI: > 100 µM
SK-MEL-28 melanoma
  TGI: > 100 µM
DMS 114 small cell lung
  TGI: > 100 µM
SK-OV-3 ovarian
  TGI: > 100 µM
U251 CNS
  TGI: > 100 µM
UACC-62 melanoma
  TGI: > 100 µM
CCRF-CEM leukemia
  TGI: > 100 µM
SNB-19 CNS
  TGI: > 100 µM
KM20L2 colon
  TGI: > 100 µM
SF-268 CNS
  TGI: > 100 µM
HOP-18 NSCLC
  TGI: > 100 µM
SNB-75 CNS
  TGI: > 100 µM
SF-295 CNS
  TGI: > 100 µM
OVCAR-8 ovarian
  TGI: > 100 µM
KM12 colon
  TGI: > 100 µM
RXF 393 renal
  TGI: > 100 µM
XF 498 CNS
  TGI: > 100 µM
OVCAR-3 ovarian
  TGI: > 100 µM
IGROV1 ovarian
  TGI: > 100 µM
MOLT-4 leukemia
  TGI: > 100 µM
NCI-H23 lung
  TGI: > 100 µM
M19-MEL melanoma
  TGI: > 100 µM
NCI-H226 lung
  TGI: > 100 µM
M14 melanoma
  TGI: > 100 µM
MALME-3M melanoma
  TGI: > 100 µM
RXF-631 renal
  TGI: > 100 µM
ACHN renal
  TGI: > 100 µM
DLD-1 colon
  TGI: > 100 µM
EKVX NSCLC
  TGI: > 100 µM
K-562 leukemia
  TGI: > 100 µM
OVCAR-4 ovarian
  TGI: > 100 µM
A549 NSCLC
  TGI: > 100 µM
SNB-78 CNS
  TGI: > 100 µM
UACC-257 melanoma
  TGI: > 100 µM
NCI-H522 lung
  TGI: > 100 µM
786-0 renal
  TGI: > 100 µM
HOP-62 NSCLC
  TGI: > 100 µM
SN12C renal
  TGI: > 100 µM
SW-620 colon
  TGI: > 100 µM
SF-539 CNS
  TGI: > 100 µM
HOP-92 NSCLC
  TGI: > 100 µM
LOX IMVI melanoma
  TGI: > 100 µM
HL-60(TB) leukemia
  TGI: > 100 µM
A498 renal
  TGI: > 100 µM
HCT-116 colon
  TGI: > 100 µM
UO-31 renal
  TGI: > 100 µM
SK-MEL-5 melanoma
  TGI: > 100 µM
CAKI-1 renal
  TGI: > 100 µM
COLO 205 colon
  TGI: > 100 µM
SR leukemia
  TGI: > 100 µM
NCI-H460 lung
  TGI: > 100 µM

## O=C1Cc2ccccc2N1/N=C\c1ccc(O)cc1
HCC-2998 colon
  TGI: > 100 µM
HT29 colon
  TGI: > 100 µM
TK-10 renal
  TGI: > 100 µM
SK-MEL-28 melanoma
  TGI: > 100 µM
RPMI-8226 leukemia
  TGI: > 100 µM
SK-MEL-2 melanoma
  TGI: > 100 µM
DMS 114 small cell lung
  TGI: > 100 µM
SK-OV-3 ovarian
  TGI: > 100 µM
U251 CNS
  TGI: > 100 µM
UACC-62 melanoma
  TGI: > 100 µM
CCRF-CEM leukemia
  TGI: > 100 µM
SNB-19 CNS
  TGI: > 100 µM
KM20L2 colon
  TGI: > 100 µM
OVCAR-5 ovarian
  TGI: > 100 µM
SF-268 CNS
  TGI: > 100 µM
HOP-18 NSCLC
  TGI: > 100 µM
SNB-75 CNS
  TGI: 70.5 µM
SF-295 CNS
  TGI: > 100 µM
OVCAR-8 ovarian
  TGI: > 100 µM
KM12 colon
  TGI: > 100 µM
XF 498 CNS
  TGI: > 100 µM
OVCAR-3 ovarian
  TGI: > 100 µM
IGROV1 ovarian
  TGI: > 100 µM
MOLT-4 leukemia
  TGI: > 100 µM
NCI-H23 lung
  TGI: > 100 µM
M19-MEL melanoma
  TGI: > 100 µM
NCI-H226 lung
  TGI: > 100 µM
M14 melanoma
  TGI: > 100 µM
MALME-3M melanoma
  TGI: > 100 µM
RXF-631 renal
  TGI: > 100 µM
ACHN renal
  TGI: > 100 µM
EKVX NSCLC
  TGI: > 100 µM
K-562 leukemia
  TGI: > 100 µM
OVCAR-4 ovarian
  TGI: > 100 µM
A549 NSCLC
  TGI: > 100 µM
SNB-78 CNS
  TGI: > 100 µM
UACC-257 melanoma
  TGI: > 100 µM
786-0 renal
  TGI: > 100 µM
HOP-62 NSCLC
  TGI: > 100 µM
SN12C renal
  TGI: > 100 µM
SW-620 colon
  TGI: > 100 µM
HCT-15 colon
  TGI: > 100 µM
DMS 273 small cell lung
  TGI: > 100 µM
SF-539 CNS
  TGI: > 100 µM
HOP-92 NSCLC
  TGI: > 100 µM
LOX IMVI melanoma
  TGI: > 100 µM
A498 renal
  TGI: > 100 µM
HCT-116 colon
  TGI: > 100 µM
UO-31 renal
  TGI: > 100 µM
SK-MEL-5 melanoma
  TGI: > 100 µM
CAKI-1 renal
  TGI: > 100 µM
COLO 205 colon
  TGI: > 100 µM
NCI-H460 lung
  TGI: > 100 µM
